Values quoted from earlier work in patent US20190083000A1, “PERSONALIZED FOOD FOR DYSPHAGIA MANAGEMENT” (NESTEC S.A., priority 2016, published 2019).

settings: database Episuite 4.1

| Lipophilicity: Oil/Water partition coefficient log Kow [w/v] | Volatility: Air/water partition coefficient log K [w/v] | Compound |
| --- | --- | --- |
| −0.17 w/v | −2.56 w/v | CC=O [Acetaldehyde] |
| 1.23 w/v | −2.20 w/v | CCC(C)C=O (stereo not drawn) [2-Methylbutanal] |
| 1.23 w/v | −2.19 w/v | CC(C)CC=O [3-Methylbutanal] |
| 1.05 w/v | −8.47 w/v | COc1cc(C=O)ccc1O [Vanillin] |
| −0.85 w/v | −4.97 w/v | CCC(=O)C(C)=O [2,3-Pentanedione] |
|  | −2.31 w/v | 2-Methylpropanal |

The remaining lines, values behind:

| Compound | Lipophilicity: Oil/Water partition coefficient log Kow [w/v] | Volatility: Air/water partition coefficient log K [w/v] |
| --- | --- | --- |
| CCCC(=O)OCC [Ethylbutyrate] | 1.85 w/v | −1.79 w/v |
| CS [Methanethiol] | 0.78 w/v | −0.97 w/v |
| CSC [Dimethylsulfide] | 0.92 w/v | −1.49 w/v |
| C=C(C)[C@H]1CC=C(C)CC1 [Limonene] | 4.38 w/v | 0.12 w/v |
| CC(=O)C(C)=O [2,3-Butanedione] | −1.34 w/v | −5.09 w/v |
